Experimental data from US20070166246A1, “Composition for oral cavity” (TOYO SHINYAKU CO., LTD., priority 2004, published 2007).

Test system: blood flow in the lower gingiva
Test: Blood flow improvement in the gingiva using tablets (Example 3)
Type: in vivo, human
Settings: gradually dissolved in the mouth (two tablets, about 2 mg extract; vitamin E 100 mg alone), four volunteers, mean ± standard deviation
Experimental: Next, using the tablets, an experiment was conducted with respect to the effect of improving blood flow in a tissue (the gingiva) of the mouth through the cooperation of four of the five volunteers in Example 1. More specifically, first, the volunteers put two tablets in their mouths, and ingested the tablets into the body while gradually dissolving the tablets in their mouths. Next, at predetermined times (five minutes and 15 minutes) after completion of ingestion of the tablets, the blood flow in the lower gingiva was measured with a blood flow meter. It should be noted that the blood flow meter and others that were used herein are the same as those in Example 1. Moreover, as an example of a substance that improves blood flow, vitamin E (100 mg) alone was ingested while being gradually dissolved in the mouth, and the blood flow was also measured. Furthermore, the tablets containing the pine bark extract (two tablets) were ingested by being swallowed at one gulp with 10 mL of distilled water, instead of being gradually dissolved in the mouth, and the blood flow was also measured.
The results of the blood flow measurement are shown as relative values, taking the measurement results of the blood flow measurement performed before putting the tablets in the mouth as 100. […]

Substance: vitamin E
- blood flow in the lower gingiva, relative value (before putting the tablets in the mouth = 100) (5 min after ingestion): 116.99 ± 14.39
- blood flow in the lower gingiva, relative value (before putting the tablets in the mouth = 100) (15 min after ingestion): 105.63 ± 16.16
